Results reported in patent US12636446B2, “Devices for evaporation and inhalation of nicotine” (Emplicure AB, priority 2016, dated 2026).
Structures can show the parent of a compound that is named as a salt. Where two headings read alike, the source gives them in different places.

What was measured:
[1] = for amount of nicotine detected in the reference sample / nicotine detected in coins after heating: pure nicotine (20 mg) dispensed; for amount of nicotine detected in the reference sample: not heated
[2] = calcium sulphate coins, nicotine solution 50 μl, 18 mg/ml dispensed; heated about 1 minute or about 5 minutes
From the text: Calcium sulphate coins were obtained as described in Example 3. For the indirect induction test a magnet was molded into the coin. Nicotine and nicotine solutions were supplied and applied, and nicotine levels were detected as described in Example 3.
Metal plate for induction cooker was obtained from Haneström (Sweden). Induction cooker Wilfa ICP-2000 was obtained from Media Markt (Sweden). Magnets (10*1 mm, Samarium Cobalt magnets, 0.4 kg pull) were obtained from first4magnets (UK). IR-thermometer (MS6520A) was obtained from Mastech (USA).
Heat treatment by indirect induction was carried out by placing a metal plate onto the induction cooker. The ceramic coins containing a magnet was applied onto the metal plate and heated on maximum effect (exact temperature was not measured; see FIG. 10).

[3] = Liquid/Powder ratio 0.4 (w/w)
Method: Calcium sulphate alpha hemihydrate (CaS) was obtained from Bo Ehrlander AB (Sweden). Shaped silicon rubbers were used as molds for coins (diameter: 12 mm, thickness: 2 mm). The calcium sulphate was mixed with a nicotine solution with a concentration of 5 or 20 mg/ml of nicotine (Liquid/Powder ratio of 0.4 (w/w)) to form a homogenous paste, which was filled in the rubber molds. Once the paste was applied, the molds were set to dry for at least 12 h under ambient conditions.
The temperature was set to approximately 200° C.
The sample was characterized by UV-spectrophotometer at a wavelength of 219 nm. The amount nicotine in the samples were then calculated.

[4] = calcium sulphate rods soaked 24 hours in pure nicotine; heated 5*10 sec., maximum temperature 315° C.
From the text: Aluminium oxide ceramic rods and calcium sulphate rods were obtained as described in Example 3. Nicotine and nicotine solutions were supplied and applied, and nicotine levels were detected as described in Example 3.
Samples were heated using a prototype e-cigarette device (X-Cube II, Smoke) obtained from Devex Mekatronik AB (Sweden). The device is derived from the commercially available e-cigarette X-Cube.
The sample in the device was heated up by a coil that is wrapped around the sample.
The end of the device was connected to a vial via a silicon hose. The vial contained 1 ml of deionised water. To simulate smoking a rod was put into the device and puffing was performed. Puffing involves a sequence of 5 puffs that are each 10 seconds long. After puffing, the hose was removed and flushed with the water. The water was analysed for concentration of nicotine.

[5] = Oven heating of Al2O3 rods soaked in sumatriptan succinate solution; detection by UV; details: Al2O3 rods soaked in 20 mg/ml solution for 24 hours
Method: The application of sumatriptan succinate was achieved by soaking the Al2O3 rods in a sumatriptan succinate solution with a concentration of 20 mg/ml. The volume of solution was around 100 μl but was not measured precisely; the volume was sufficient to fully immerse the rods. The samples were soaked for 24 hours in room temperature and thereafter the samples were dried for 24 hours, before heat treatment and/or analysis.
The temperature was set to approximately 300° C. […] The rods were heated in the oven for a period of time ranging from 0 to 15 minutes.
All sumatriptan release tests were carried out according to the same analytical method. The rods were immersed in a beaker containing 50 ml of deionised water. After 24 hours a sample of the water was taken out and filtered (pore size: 0.2 μm). The sample was characterized by UV-spectrophotometry at a wavelength of 282 nm. The amount sumatriptan succinate in the samples was then calculated. The reference samples represent the amount of sumatriptan succinate that was loaded before heat treatment. The difference between the amount of sumatriptan succinate detected in the heat-treated samples and the reference sample represents the amount of sumatriptan succinate that evaporated during the heat treatment.

[6] = Oven heating of calcium sulphate coins pre-loaded with sumatriptan succinate; detection by UV; format: physicochemical; details: 0.07 g sumatriptan succinate/g calcium sulphate, oven approximately 250° C.
Method: (§1) The temperature was set to approximately 250° C.

[7] = From the text: (§2) Calcium sulphate alpha hemihydrate (CaS) was obtained from Bo Ehrlander AB (Sweden). Clonidine hydrochloride was obtained from PCAS (Finland). Shaped silicon rubbers were used as molds for coins (diameter: 12 mm, thickness: 2 mm). The calcium sulphate was mixed with powder of Clonidine hydrochloride (0.07 g Clonidine hydrochloride/g calcium sulphate) and deionised water (Liquid/Powder ratio of 0.4 (w/w)) to form a homogenous paste, which was used to fill the rubber molds. Once the paste had been applied, the molds were set to dry for at least 12 h under ambient conditions.
The oven temperature was set to approximately 250° C.
(§3) Each coin was weighed and immersed into a beaker containing 200 ml of deionised water. […] The sample was characterized by Shimadzu LC-2030 (Germany) HPLC system with a Genesis C18 analytical column 4 μm (100×2.1 mm i.d.) with a mobile phase of acetonitrile/phosphoric acid, pH 3 (11/89). The wavelength was set to 220 nm.
The reference samples represent the amount of clonidine hydrochloride mg/g calcium sulphate that was loaded before heat treatment.

[8] = calcium sulphate coins, solution 50 μl, 5 mg/ml dispensed; oven approximately 250° C., 0 to 15 minutes
Method: as §2, with “with” for “with powder of Clonidine hydrochloride (0.07 g Clonidine hydrochloride/g calcium sulphate) and”, “When” for “Once”, “was” for “had been”
Clonidine hydrochloride solution (50 μl, 5 mg/ml) was dispensed onto the calcium sulphate coins. When the solution was applied, the coins were set to dry for at least 12 h under ambient conditions.
as §1, §3
The reference samples represent the amount of clonidine hydrochloride that was loaded before heat treatment.

[9] = calcium sulphate rods soaked in pure nicotine, oven approximately 200° C.

Compound: CN1CCCC1c1cccnc1 (stereo not drawn) [nicotine]
- time within which almost all of the nicotine was released when heated ([1]; aluminium oxide rods soaked in 6 mg/ml nicotine solution (diluted e-juice) 24 hours, oven approximately 200° C.): 5 to 10 min
- amount of nicotine absorbed by rod ([1]; aluminium oxide rods soaked in 6 mg/ml nicotine solution for 24 hours): approximately 135 μg nicotine/rod
- amount of nicotine detected in the reference sample ([1]; calcium sulphate coins): lower than 20 mg
- nicotine detected in coins after heating ([1]; calcium sulphate coins, oven approximately 200° C.): lower release of nicotine was detected after heating
- amount of nicotine absorbed by rod ([1]; calcium sulphate rods soaked in pure nicotine for 24 hours): approximately 20 mg nicotine/rod
- nicotine release during heating [1, 9]: Most of the nicotine was released
- nicotine release, 5 min of heating compared to 1 min of heating [1, 9]: a higher amount was released during 5 min of heating compared to 1 min of heating
- amount of nicotine detected in the reference sample ([1]; geopolymer coins): about 16 mg
- nicotine detected in coins after heating ([1]; geopolymer coins, oven approximately 200° C.): lower release of nicotine was detected after heating
- nicotine release on induction heating, unheated plate [2]: Most of the nicotine was released within the first minute
- amount of nicotine contained in coin ([3]; calcium sulphate coins mixed with 5 mg/ml nicotine solution): approximately 180 μg
- amount of nicotine contained in coin ([3]; calcium sulphate coins mixed with 20 mg/ml nicotine solution): ~390 µg
- nicotine release on heat treatment in e-cigarette device [4]: a heat treatment in the device will result in a nicotine release

Compound: CNS(=O)(=O)Cc1ccc2[nH]cc(CCN(C)C)c2c1 [sumatriptan succinate]
- amount of sumatriptan succinate absorbed by rod [5]: approximately 1 mg sumatriptan succinate/rod
- time within which almost all of the Sumatriptan succinate was released when heated [6]: ≤ 15 min

Compound: Clc1cccc(Cl)c1N=C1NCCN1 [clonidine hydrochloride]
- amount of clonidine hydrochloride contained in coin ([7]; calcium sulphate coins pre-loaded, 0.07 g clonidine hydrochloride/g calcium sulphate, coin approximately 0.3 g): approximately 17 mg
- time within which almost all of the clonidine hydrochloride was released when heated ([7]; pre-loaded calcium sulphate coins, oven approximately 250° C.): ≤ 15 min
- amount of clonidine hydrochloride present in the coins during heating [8]: decreased significantly
